Assay results reported in patent publication US8772446B2, “Bifunctional chelating agents” (Nordion (Canada) Inc., priority 2010, dated 2014).
Where two headings read alike, the source gives them in different places.

Assays:
log P = type: physicochemical
human apo-transferrin [1] = target: T1, human apo-transferrin (Homo sapiens, UniProt P02787); experiment: ^67Ga complex stability: 2-h competition with excess human apo-transferrin, HPLC; conditions: for Stability in competition with excess human apo-transferrin, 10 min / Stability in competition with excess human apo-transferrin, 1 h / Stability in competition with excess human apo-transferrin, 2 h: ^67Ga complex, 37° C
T1 sequence (P02787 20-698): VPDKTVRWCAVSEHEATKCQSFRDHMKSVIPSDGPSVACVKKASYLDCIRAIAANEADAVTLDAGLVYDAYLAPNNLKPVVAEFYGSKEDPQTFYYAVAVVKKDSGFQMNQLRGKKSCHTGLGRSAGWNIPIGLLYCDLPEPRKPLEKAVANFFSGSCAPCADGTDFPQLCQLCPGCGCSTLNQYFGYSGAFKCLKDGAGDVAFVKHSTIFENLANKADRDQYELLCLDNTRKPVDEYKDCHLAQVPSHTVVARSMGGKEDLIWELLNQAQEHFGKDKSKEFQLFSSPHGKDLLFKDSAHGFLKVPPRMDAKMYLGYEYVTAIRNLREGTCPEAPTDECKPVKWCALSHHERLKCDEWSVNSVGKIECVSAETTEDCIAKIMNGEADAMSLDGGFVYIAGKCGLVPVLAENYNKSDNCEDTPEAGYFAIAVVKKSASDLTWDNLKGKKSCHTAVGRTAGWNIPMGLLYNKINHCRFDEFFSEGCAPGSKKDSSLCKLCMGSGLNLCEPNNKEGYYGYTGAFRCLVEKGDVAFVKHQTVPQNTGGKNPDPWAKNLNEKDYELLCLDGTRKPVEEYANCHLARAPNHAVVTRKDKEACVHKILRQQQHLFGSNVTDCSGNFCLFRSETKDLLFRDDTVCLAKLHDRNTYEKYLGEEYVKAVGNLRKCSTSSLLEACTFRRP
Procedure: (§1) FIG. 13 illustrates stacked labelling traces of ^67Ga(dedpa)^+ of 2 h stability experiment against apo-transferrin (gradient: A: NaOAc buffer, pH 4.5, B: MeOH. 0-100% B linear gradient 20 min).

human apo-transferrin [2] = target: T1, human apo-transferrin; experiment: ^111In-chelate stability: binding competition with human apo-transferrin at ambient temperature, PD-10 columns; type: in vitro ADME; parameters: Human serum apo-transferrin was purchased from Sigma-Aldrich; purchased Sigma-Aldrich; host or cells: human serum
Procedure: Human apo-transferrin (Aldrich) was suspended in 10 mM NaHCO3 buffer at pH 6.9. Labeling solutions were prepared with chelators and ^111In in 10 mM NaHCO3 buffer at pH 5.5, and allowed to sit for 20-30 minutes. Quantitative formation of ^111In-chelate complexes was confirmed by HPLC (same methods as in Example 2). ^111In(DOTA) was formed using a microwave reactor (Biotage) at 80° C. for 10 minutes to ensure quantitative labeling. Competition experiments for all 8 chelators studied (Table 3) were performed with preformed ^111In-chelate complexes at a concentration of 36.5 mM, and with human apo-transferrin at a concentration of ˜10 mM. Samples were left to sit in sterile scintillation vials for 1 hour and 24 hours at ambient temperature. Chelate stability was determined using size-exclusion ‘desalting’ columns (GE Healthcare PD-10 pre-packed columns, Sephadex G-25 M). All compounds smaller than ˜5000 Daltons were retained by the PD-10 columns, and all transferrin was eluted. PD-10 columns were conditioned by discarding the contained bactericidal solution and eluting 20 mL of phosphate buffered saline (PBS, purchased from BioWhittaker). For analysis, the competition experiment solutions were diluted to 2.5 mL with PBS, measured with a Capintec scintillation counter, loaded onto PD-10 columns, and allowed to elute into a waste container fully. An additional 3.5 mL of PBS was then loaded onto the columns and collected into a sterile scintillation vial. PD-10 columns were discarded after a single use. The vial containing the eluent was then measured with a Capintec scintillation counter to determine the amount of ^111In bound to transferrin. The difference in radioactivity between the competition experiment solutions and the eluent from the PD-10 columns was used to determine the percent ^111In bound to transferrin, and therefore the percent stability of the complexes.

human apo-transferrin [3] = target: T1, human apo-transferrin; conditions: 40 µM
Procedure: as §1

[4] = Solution thermodynamics: formation constants (log KML) and pM of Ga(III) complexes, potentiometric titration; type: physicochemical; conditions: Calculated for 10 μM total ligand and 1 μM total metal at pH 7.4 and 25° C
Procedure: A more relevant indicator of the extent to which a metal complex is formed in solution is given by pM (−log free M) which considers the influence of ligand basicity and chelate hydrolysis.
Carbonate-free solutions of the titrant, NaOH, were prepared by dilution of 50% solution (Acros Organics) with freshly boiled MQ water under a stream of purified nitrogen gas. The solution was standardized with potassium acid phthalate and the extent of carbonate accumulation was periodically checked by titration with a standard hydrochloric acid solution and determination of the corresponding Gran titration plot.^47 Gallium ion solutions were prepared by dilution of the appropriate atomic absorption (AA) standard. The exact amount of acid present in the gallium standard was determined by titration of an equimolar solution of Ga and Na2H2EDTA. The amount of acid present was determined by Gran's method.^47
Data were collected in triplicate using PC Control (Version 6.0.91, Metrohm). The titration apparatus consisted of a 10 mL water jacketed glass vessel maintained at 25.0±0.1° C. (Julabo waterbath). Prior to and during the course of the titration, a blanket of nitrogen, passed through 10% NaOH to exclude any CO2, was maintained over the sample solution. The ionic strength was maintained at 0.16 M using NaCl. Prior to each potentiometric equilibrium study, the electrode was calibrated using standard HCl solutions. Calibration data were analysed by standard computer treatment provided within the program MacCalib to obtain the calibration parameters E0 and pKw.
As the degree of formation of Ga(III) complexes at low pH (<2) was too high for the determination of stability constants by use of direct potentiometry, the ligand-ligand competition method using Na2H2EDTA was also performed.

[5] = Ga(III) complex, cited from earlier work; for log KML: literature value

## COc1cc(CN(CCN(Cc2cc(OC)cc(C(=O)[O-])n2)Cc2c(OC)cc(OC)cc2OC)Cc2c(OC)cc(OC)cc2OC)nc(C(=O)[O-])c1.O=[N+]([O-])[O-].[Ga+3] [Ga(91b)NO3]
Log P
  log P: 0.66
Human apo-transferrin [1]
  Stability in competition with excess human apo-transferrin, 10 min: 97%
  Stability in competition with excess human apo-transferrin, 1 h: 96%
  Stability in competition with excess human apo-transferrin, 2 h: 96%

## O=C(O)c1cccc(CNCCNCc2cccc(C(=O)O)n2)n1 [^111In(1), metal not drawn]
Human apo-transferrin [2]
  % ^111In-chelate stability at 1 hour: 98%
  % ^111In-chelate stability, 24 hour stability: 43%

## CCOc1cc(OCC)c(CN(CCN(Cc2cccc(C(=O)[O-])n2)Cc2c(OCC)cc(OCC)cc2OCC)Cc2cccc(C(=O)[O-])n2)c(OCC)c1.O=[N+]([O-])[O-].[Ga+3] [Ga(99a)NO3]
Human apo-transferrin [1]
  Stability in competition with excess human apo-transferrin, 10 min: 95%
  Stability in competition with excess human apo-transferrin, 1 h: 92%
  Stability in competition with excess human apo-transferrin, 2 h: 91%

## O=C(O)c1cccc(CN(CCN(Cc2ccc([N+](=O)[O-])cc2)Cc2cccc(C(=O)O)n2)Cc2ccc([N+](=O)[O-])cc2)n1 [Compound 66]
Human apo-transferrin [3]; 10 min
  Stability in competition with excess human apo-transferrin, 10 min: 88%
Human apo-transferrin [3]; 1 h
  Stability in competition with excess human apo-transferrin, 1 h: 69%
Human apo-transferrin [3]; 2 h
  Stability in competition with excess human apo-transferrin, 2 h: 51%

## O=C(O)c1cccc(CNCCCNCc2cccc(C(=O)O)n2)n1 [^111In(3), metal not drawn]
Human apo-transferrin [2]
  % ^111In-chelate stability at 1 hour: 91%
  % ^111In-chelate stability, 24 hour stability: 85%

## O=C([O-])CN1CCN(CC(=O)[O-])CCN(CC(=O)[O-])CCN(CC(=O)[O-])CC1.[111In+3] [^111In(DOTA), reference compound]
Human apo-transferrin [2]
  % ^111In-chelate stability, 24 hour stability: 81%

## O=C(O)CN1CCN(CC(=O)O)CCN(CC(=O)O)CCN(CC(=O)O)CC1 [DOTA, 1,4,7,10-tetraazacyclododecane-1,4,7,10-tetraacetic acid, reference compound]
[4]
  pM: 18.5
[5]
  log KML: 21.33

## O=C(O)c1cccc(CNCCN(CCNCc2cccc(C(=O)O)n2)Cc2cccc(C(=O)O)n2)n1 [^111In(5), metal not drawn]
Human apo-transferrin [2]
  % ^111In-chelate stability, 24 hour stability: 88%

## O=C(O)c1cccc(CNCCNCc2cccc(C(=O)O)n2)n1 [Compound H2dedpa]
[4]
  pM: 27.4
Human apo-transferrin [1]; challenge experiment
  Extraction of gallium from transferrin (in words): capable of extracting gallium from transferrin

## O=C(O)CN1CCN(CC(=O)O)CCN(CC(=O)O)CC1 [NOTA, 1,4,7-triazacyclononane-1,4,7-triacetic acid, reference compound]
[4]
  pM: 27.9
[5]
  log KML: 30.98

## O=C(O)CN(CCN(CC(=O)O)Cc1cccc(C(=O)O)n1)CCN(CC(=O)O)Cc1cccc(C(=O)O)n1 [^111In(6), metal not drawn]
Human apo-transferrin [2]
  % ^111In-chelate stability at 1 hour: 89%
  % ^111In-chelate stability, 24 hour stability: 91%

## O=C(O)CN(CCN(CC(=O)O)CC(=O)O)CC(=O)O [EDTA, reference compound]
[4]
  pM: 18.3
[5]
  log KML: 21.7

## O=C([O-])CN(CCN(CC(=O)[O-])CC(=O)[O-])CCN(CC(=O)[O-])CC(=O)[O-].[111In+3] [^111In(DTPA), reference compound]
Human apo-transferrin [2]
  % ^111In-chelate stability at 1 hour: 86%
  % ^111In-chelate stability, 24 hour stability: 88%

## O=C(O)CN(CCCN(CC(=O)O)Cc1cccc(C(=O)O)n1)Cc1cccc(C(=O)O)n1 [^111In(4), metal not drawn]
Human apo-transferrin [2]
  % ^111In-chelate stability at 1 hour: 93%
  % ^111In-chelate stability, 24 hour stability: 91%

## CCOc1cc(OCC)c(CN(CCN(Cc2cc(OC)cc(C(=O)[O-])n2)Cc2c(OCC)cc(OCC)cc2OCC)Cc2cc(OC)cc(C(=O)[O-])n2)c(OCC)c1.O=[N+]([O-])[O-].[Ga+3] [Ga(99b)NO3]
Log P
  log P: 1.16
Human apo-transferrin [1]
  Stability in competition with excess human apo-transferrin, 10 min: 94%
  Stability in competition with excess human apo-transferrin, 1 h: 93%
  Stability in competition with excess human apo-transferrin, 2 h: 93%

## O=C(O)CN(CCN(CC(=O)O)Cc1cccc(C(=O)O)n1)Cc1cccc(C(=O)O)n1 [^111In(2), metal not drawn]
Human apo-transferrin [2]
  % ^111In-chelate stability at 1 hour: 90%
  % ^111In-chelate stability, 24 hour stability: 91%

## COc1cc(OC)c(CN(CCN(Cc2cccc(C(=O)[O-])n2)Cc2c(OC)cc(OC)cc2OC)Cc2cccc(C(=O)[O-])n2)c(OC)c1.O=[N+]([O-])[O-].[Ga+3] [Ga(91a)NO3]
Log P
  log P: −0.03
Human apo-transferrin [1]
  Stability in competition with excess human apo-transferrin, 10 min: 86%
  Stability in competition with excess human apo-transferrin, 1 h: 85%
  Stability in competition with excess human apo-transferrin, 2 h: 82%

## Transferrin: iron transport protein found in high concentrations in the blood that has an affinity for Ga
[4]
  pM: 21.3
[5]; conditional constant from reference
  log KML (conditional constant): 20.3

## COc1cc(CN(CCN(Cc2cc(OC)cc(OC)c2)Cc2cccc(C(=O)[O-])n2)Cc2cccc(C(=O)[O-])n2)cc(OC)c1.O=[N+]([O-])[O-].[Ga+3] [Ga(88)NO3]
Log P
  log P: −0.32
Human apo-transferrin [1]
  Stability in competition with excess human apo-transferrin, 10 min: 76%
  Stability in competition with excess human apo-transferrin, 1 h: 59%
  Stability in competition with excess human apo-transferrin, 2 h: 52%
